# Assay results reported in PMC10945556, “Design, Synthesis, and Antifungal Activity of 3-Substituted-2(5H)-Oxaboroles” (ACS Medicinal Chemistry Letters, 2024).
# Legend:
# [1] = test system: T. mentagrophytes; experiment: MIC, dose-dependent solid media assay; assay type: cell-based, Trichophyton mentagrophytes; details: Trichophyton mentagrophytes
# [2] = test system: P. chrysogenum; experiment: MIC, dose-dependent solid media assay; assay type: cell-based, Penicillium chrysogenum; details: Penicillium chrysogenum
# [3] = test system: A. flavus; experiment: MIC, dose-dependent solid media assay; assay type: cell-based, Aspergillus flavus; details: Aspergillus flavus
# [4] = test system: C. albicans; experiment: MIC, microbroth dilution; assay type: cell-based, Candida albicans; details: Candida albicans
# [5] = test system: S. cerevisiae; experiment: MIC, microbroth dilution; assay type: cell-based, Saccharomyces cerevisiae; details: Saccharomyces cerevisiae
# [6] = test system: B. cereus; experiment: MIC, microbroth dilution; assay type: cell-based, Bacillus cereus; details: Bacillus cereus
# [7] = test system: Methicillin resistant Staphylococcus aureus; experiment: MIC, microbroth dilution; assay type: cell-based; details: Staphylococcus aureus, S. aureus (MRSA)
# [8] = test system: P. aeruginosa; experiment: MIC, microbroth dilution; assay type: cell-based, Pseudomonas aeruginosa; details: Pseudomonas aeruginosa
# [9] = test system: E. coli; experiment: MIC, microbroth dilution; assay type: cell-based, Escherichia coli; details: for MIC: Escherichia coli
# [10] = test system: rat myoblast cells (H9c2); experiment: Cell viability assay against H9c2 cell line; assay type: cell-based; details: concentrations up to 100 μM, 24 h
# Description: (§1) In general, very little growth inhibition was observed against either Gram-positive or Gram-negative bacterial pathogens. […] The SAR for the antibacterial is dissimilar to that observed for the antifungal properties.
# (§2) Figure 3 (A) Cell viability assay against H9c2 cell line at 100 μM for 24 h (normalized to PBS no treatment), (B) Hemolytic assay at 50 and 100 μM for 1 h (normalized to triton X-100 positive control). Error bars in both graphs represent standard error of mean (SEM) of replicates (n = 3).
# [11] = Hemolytic assay; assay type: cell-based; details: 50 and 100 μM for 1 h
# Description: as §1, §2
# [12] = test system: E. coli; experiment: Growth inhibition screen in liquid medium; assay type: cell-based, Escherichia coli; details: screen at 50 and 12.5 μg/mL
# Text: These included four bacterial pathogens [Bacillus cereus (Gram-positive), Methicillin resistant Staphylococcus aureus (Gram-positive), Pseudomonas aeruginosa (Gram-negative), and Escherichia coli (Gram-negative)], a fungal pathogen (Candida albicans), and a yeast (Saccharomyces cerevisiae). […] Commercially available tavaborole, cycloheximide, and nystatin were also screened as benchmarks. […] In addition, the 3-substituted oxaboroles were screened in a dose-dependent manner on solid media against three spore-forming fungal pathogens: Trichophyton mentagrophytes, Penicillium chrysogenum, and Aspergillus flavus (Figures 2B and S152–S192). The compounds could not be screened for growth inhibition in liquid media against these pathogens due to clumping of the mycelia, which impeded the absorbance readings.
Compound,MIC [1],MIC ([1]; value in parentheses),MIC [2],MIC ([2]; value in parentheses),MIC [3],MIC ([3]; value in parentheses),MIC [4],MIC ([4]; value in parentheses),MIC [5],MIC ([5]; value in parentheses),MIC [6],MIC ([6]; value in parentheses),MIC [7],MIC ([7]; value in parentheses),MIC [8],MIC ([8]; value in parentheses),MIC [9],MIC ([9]; value in parentheses),cytotoxic effects against rat myoblast cells (H9c2) [10],hemolytic activity [11],further results
CC(C)(C)c1ccc(C2=CCOB2O)cc1 [Compound 6w],> 50 µg/mL,> 232 µM,12.5 µg/mL,57.9 µM,> 50 µg/mL,> 232 µM,> 50 µg/mL,> 232 µM,> 50 µg/mL,> 232 µM,> 50 µg/mL,> 232 µM,> 50 µg/mL,> 232 µM,> 50 µg/mL,> 232 µM,> 50 µg/mL,> 232 µM,none,none possessed hemolytic activity,–
OB1OCC=C1c1ccc2ccccc2c1 [Compound 6q],> 50 µg/mL,> 238 µM,12.5 µg/mL,59.5 µM,> 50 µg/mL,> 238 µM,> 50 µg/mL,> 238 µM,> 50 µg/mL,> 238 µM,> 50 µg/mL,> 238 µM,> 50 µg/mL,> 238 µM,> 50 µg/mL,> 238 µM,> 50 µg/mL,> 238 µM,none,none possessed hemolytic activity,–
OB1OCC=C1c1ccc2occc2c1 [Compound 6r],50 µg/mL,250 µM,25 µg/mL,125 µM,50 µg/mL,250 µM,> 50 µg/mL,> 250 µM,5.2 ± 1 µg/mL,26 µM,> 50 µg/mL,> 250 µM,> 50 µg/mL,> 250 µM,> 50 µg/mL,> 250 µM,> 50 µg/mL,> 250 µM,none,none possessed hemolytic activity,–
Cc1ccc(C2=CCOB2O)cc1 [Compound 6t],> 50 µg/mL,> 287 µM,21 ± 4 µg/mL,121 µM,> 50 µg/mL,> 287 µM,> 50 µg/mL,> 287 µM,10.4 ± 2 µg/mL,59.8 µM,> 50 µg/mL,> 287 µM,> 50 µg/mL,> 287 µM,> 50 µg/mL,> 287 µM,–,241 µM,none,none possessed hemolytic activity,growth inhibition of E. coli [12]: inhibited the growth
OB1OCC=C1c1cccs1 [Compound 6s],> 50 µg/mL,> 301 µM,50 µg/mL,301 µM,> 50 µg/mL,> 301 µM,> 50 µg/mL,> 301 µM,10 ± 2 µg/mL,60.2 µM,> 50 µg/mL,> 301 µM,> 50 µg/mL,> 301 µM,> 50 µg/mL,> 301 µM,–,253 µM,–,–,growth inhibition of E. coli [12]: inhibited the growth
Cc1cccc(C2=CCOB2O)c1 [Compound 6u],42 ± 8 µg/mL,241 µM,25 µg/mL,144 µM,33 ± 8 µg/mL,190 µM,> 50 µg/mL,> 287 µM,21 ± 4 µg/mL,121 µM,> 50 µg/mL,> 287 µM,> 50 µg/mL,> 287 µM,> 50 µg/mL,> 287 µM,> 50 µg/mL,> 287 µM,none,none possessed hemolytic activity,–
OB1OCC=C1c1ccc(Cl)cc1 [Compound 6e],50 µg/mL,258 µM,12.5 µg/mL,64.4 µM,50 µg/mL,258 µM,> 50 µg/mL,> 258 µM,5.2 ± 1 µg/mL,26.8 µM,> 50 µg/mL,> 258 µM,> 50 µg/mL,> 258 µM,> 50 µg/mL,> 258 µM,20 to 50 µg/mL,129 µM,–,–,MIC EC [9]: 25 ± 0 µg/mL; growth inhibition of E. coli [12]: inhibited the growth
OB1OCC=C1c1cccc(Br)c1 [Compound 6i],25 µg/mL,105 µM,10.4 ± 2 µg/mL,43.7 µM,25 µg/mL,105 µM,> 50 µg/mL,> 210 µM,50 µg/mL,210 µM,> 50 µg/mL,> 210 µM,> 50 µg/mL,> 210 µM,> 50 µg/mL,> 210 µM,> 50 µg/mL,> 210 µM,none,none possessed hemolytic activity,–
OB1OCC=C1c1ccc(F)cc1 [Compound 6b],> 50 µg/mL,> 281 µM,25 µg/mL,140 µM,> 50 µg/mL,> 281 µM,> 50 µg/mL,> 281 µM,10.4 ± 2 µg/mL,58.4 µM,> 50 µg/mL,> 281 µM,> 50 µg/mL,> 281 µM,> 50 µg/mL,> 281 µM,–,236 µM,–,–,growth inhibition of E. coli [12]: inhibited the growth
OB1OCC=C1c1ccc(Br)cc1 [Compound 6h],33 ± 8 µg/mL,139 µM,12.5 µg/mL,52.5 µM,33 ± 8 µg/mL,139 µM,> 50 µg/mL,> 210 µM,12.5 µg/mL,52.5 µM,> 50 µg/mL,> 210 µM,> 50 µg/mL,> 210 µM,> 50 µg/mL,> 210 µM,20 to 50 µg/mL,88.2 µM,none,none possessed hemolytic activity,MIC EC [9]: 21 ± 4 µg/mL; growth inhibition of E. coli [12]: inhibited the growth
CCCc1ccc(C2=CCOB2O)cc1 [Compound 6x],50 µg/mL,248 µM,12.5 µg/mL,61.9 µM,> 50 µg/mL,> 248 µM,> 50 µg/mL,> 248 µM,10.4 ± 2 µg/mL,51.5 µM,> 50 µg/mL,> 248 µM,> 50 µg/mL,> 248 µM,> 50 µg/mL,> 248 µM,20 to 50 µg/mL,104 µM,none,none possessed hemolytic activity,MIC EC [9]: 21 ± 4 µg/mL; growth inhibition of E. coli [12]: inhibited the growth
